# Activity calls are given as the source filed them. The rule behind the calls is not given here.
# Biological target: Neuronal acetylcholine receptor; alpha9/alpha10 (Homo sapiens) (UniProt Q9UGM1+Q9GZZ6)
# Assay: Antagonist activity at human alpha9alpha10 nAChR expressed in acetylcholine-induced Xenopus laevis oocytes assessed as inhibition of acetylcholine-induced current at 30 nM at -40 mV holding potential by two electrode voltage-clamp assay
# Format: cell-based
# Settings: Oocyte, filed as antagonist
smiles,measurement,value
CC[C@H](C)[C@H](NC(=O)[C@H](CCCNC(=N)N)NC(=O)[C@H](CCCNC(=N)N)NC(=O)[C@H](Cc1ccc(O)cc1)NC(=O)[C@H](CCCNC(=N)N)NC(=O)[C@H](CCCNC(=N)N)NC(=O)[C@H](CCCNC(=N)N)NC(=O)[C@H](CCCNC(=N)N)NC(=O)[C@H](CC(=O)O)NC(=O)[C@H](Cc1ccc(O)cc1)NC(=O)[C@@H]1CCCN1C(=O)[C@H](CO)NC(=O)[C@H](CCCNC(=N)N)NC(=O)[C@H](Cc1ccc(O)cc1)NC(=O)[C@H](CCCNC(=N)N)NC(=O)CN)C(=O)N[C@H](C(=O)N[C@@H](CC(=O)O)C(N)=O)[C@@H](C)O,inhibition,Active

# — ChEMBL document CHEMBL5537181 (J Med Chem, 2024)
